In patent US12570671B2 (BRISTOL-MYERS SQUIBB COMPANY, priority 2020, dated 2026):
Like-named read-outs stand apart in the source and are kept apart here.

Key:
Assay type in all cases: cell-based
Ikaros [1] = target: T1, Ikaros (Homo sapiens, UniProt Q13422+Q96SW2); assay: Helios Cellular Degradation Assay (Ikaros readout); set-up: Jurkat cells were plated at 80,000 cells/well; endogenous in cells; host or cells: Jurkat; conditions: Jurkat cells, 72 h incubation, Ikaros-Alexa488 antibody staining, flow cytometry; read-out: Ikaros Jurkat IC50
T1 sequence (Q13422 whole entry): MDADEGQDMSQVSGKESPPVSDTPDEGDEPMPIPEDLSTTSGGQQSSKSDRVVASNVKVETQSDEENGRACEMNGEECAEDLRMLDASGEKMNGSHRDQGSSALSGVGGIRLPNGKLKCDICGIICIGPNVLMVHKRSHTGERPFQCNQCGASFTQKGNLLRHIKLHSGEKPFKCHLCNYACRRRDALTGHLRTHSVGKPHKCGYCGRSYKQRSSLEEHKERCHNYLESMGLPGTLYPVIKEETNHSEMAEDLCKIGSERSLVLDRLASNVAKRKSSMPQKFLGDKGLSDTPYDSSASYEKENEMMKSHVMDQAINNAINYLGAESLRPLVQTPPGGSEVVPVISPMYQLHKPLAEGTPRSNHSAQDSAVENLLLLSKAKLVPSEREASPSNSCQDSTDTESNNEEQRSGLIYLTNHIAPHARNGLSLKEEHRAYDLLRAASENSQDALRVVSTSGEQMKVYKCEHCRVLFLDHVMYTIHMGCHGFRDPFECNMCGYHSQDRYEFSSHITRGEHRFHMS
T1 sequence (Q96SW2 whole entry): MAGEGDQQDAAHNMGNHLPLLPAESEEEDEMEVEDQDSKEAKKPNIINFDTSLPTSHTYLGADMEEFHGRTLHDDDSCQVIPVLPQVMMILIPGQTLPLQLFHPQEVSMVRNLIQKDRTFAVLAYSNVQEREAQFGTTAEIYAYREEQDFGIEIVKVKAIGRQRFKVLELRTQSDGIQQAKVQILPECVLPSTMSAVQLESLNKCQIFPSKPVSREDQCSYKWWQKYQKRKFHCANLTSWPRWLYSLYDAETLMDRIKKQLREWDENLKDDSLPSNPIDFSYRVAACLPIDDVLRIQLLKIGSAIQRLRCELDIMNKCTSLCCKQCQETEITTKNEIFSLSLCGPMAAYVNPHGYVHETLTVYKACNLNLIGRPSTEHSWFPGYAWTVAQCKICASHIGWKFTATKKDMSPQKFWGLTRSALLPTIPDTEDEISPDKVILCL
T1 sequence (Q16531 whole entry partner): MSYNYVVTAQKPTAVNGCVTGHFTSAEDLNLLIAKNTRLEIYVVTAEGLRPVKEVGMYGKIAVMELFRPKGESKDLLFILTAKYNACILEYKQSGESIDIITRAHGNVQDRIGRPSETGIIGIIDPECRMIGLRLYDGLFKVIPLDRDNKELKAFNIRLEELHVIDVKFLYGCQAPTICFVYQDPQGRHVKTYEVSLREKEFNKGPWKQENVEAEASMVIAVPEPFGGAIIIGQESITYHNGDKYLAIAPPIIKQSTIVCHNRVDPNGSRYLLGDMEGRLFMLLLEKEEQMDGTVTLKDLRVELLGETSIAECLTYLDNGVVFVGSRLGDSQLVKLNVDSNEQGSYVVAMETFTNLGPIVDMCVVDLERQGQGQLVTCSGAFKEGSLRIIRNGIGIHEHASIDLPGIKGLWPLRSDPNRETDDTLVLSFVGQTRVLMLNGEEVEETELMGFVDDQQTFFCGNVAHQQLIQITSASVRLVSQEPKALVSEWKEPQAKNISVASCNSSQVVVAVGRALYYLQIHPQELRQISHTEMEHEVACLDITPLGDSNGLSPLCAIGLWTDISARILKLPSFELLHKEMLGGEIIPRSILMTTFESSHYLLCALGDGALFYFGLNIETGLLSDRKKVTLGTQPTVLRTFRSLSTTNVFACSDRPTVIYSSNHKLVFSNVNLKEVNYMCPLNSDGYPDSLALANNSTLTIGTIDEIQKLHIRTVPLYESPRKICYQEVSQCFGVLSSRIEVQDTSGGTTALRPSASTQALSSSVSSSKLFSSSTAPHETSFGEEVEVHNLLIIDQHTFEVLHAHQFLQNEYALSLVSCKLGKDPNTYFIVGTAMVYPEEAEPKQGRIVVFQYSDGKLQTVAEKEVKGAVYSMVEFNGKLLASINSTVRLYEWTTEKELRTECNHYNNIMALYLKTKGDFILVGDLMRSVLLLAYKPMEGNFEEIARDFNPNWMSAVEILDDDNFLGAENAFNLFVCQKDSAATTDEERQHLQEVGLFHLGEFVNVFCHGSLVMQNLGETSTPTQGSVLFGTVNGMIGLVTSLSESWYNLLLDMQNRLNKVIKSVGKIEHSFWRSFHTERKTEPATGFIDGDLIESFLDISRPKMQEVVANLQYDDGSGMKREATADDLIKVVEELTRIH
Procedure: (§1) Jurkat cells were plated at 80,000 cells/well in 40 μL RPMI+10% FBS in a 384 well cell culture plate prior to using acoustic dispensing technology for adding compound of interest. Cell cultures were incubated for 72 h at 37° C. and 5% C02. In order to facilitate analysis, cell cultures were spun down at 200 rpm for 5 min and the supernatant was discarded. After shaking the plate to dislodge the cell pellet, cells were resuspended in 50 μL of Fixation Buffer (eBioScience FoxP3 buffer set 00-5523-00) for 60 min at room temperature. After centrifuging and discarding the supernatant, cells were permeabilized with 50 μL of Permeabilization buffer (eBioScience FoxP3 buffer set 00-5523-00) for 10 min at room temperature. Following permeabilization, cells were spun down and the supernatant was replaced with 20 μL fluorescently labelled antibodies against Helios, Ikaros and Aiolos or corresponding Isotype controls in 1× Permeabilization buffer (Ikaros-Alexa488 [Biolegend, Cat #368408, 1:50], Helios-PE [CST, Cat #29360, 1:50], Aiolos-Alexa647 [Biolegend, Cat #371106Biolegend, 1:25]) and staining reactions were incubated for 1 h at room temperature; protected from light. […] Stained cells were resuspended in 25 μL of flow cytometry staining buffer (PBS+0.2% BSA) and analyzed using an Intellicyt Ique Plus flow cytometer.

Helios [2] = target: T2, Helios (Homo sapiens, UniProt Q96SW2+Q9UKS7); assay: Helios Cellular Degradation Assay (Helios readout); set-up: Jurkat cells were plated at 80,000 cells/well; endogenous in cells; host or cells: Jurkat; conditions: Jurkat cells, 72 h incubation, Helios-PE antibody staining, flow cytometry; read-out: Helios Jurkat IC50
T2 sequence (Q9UKS7 whole entry): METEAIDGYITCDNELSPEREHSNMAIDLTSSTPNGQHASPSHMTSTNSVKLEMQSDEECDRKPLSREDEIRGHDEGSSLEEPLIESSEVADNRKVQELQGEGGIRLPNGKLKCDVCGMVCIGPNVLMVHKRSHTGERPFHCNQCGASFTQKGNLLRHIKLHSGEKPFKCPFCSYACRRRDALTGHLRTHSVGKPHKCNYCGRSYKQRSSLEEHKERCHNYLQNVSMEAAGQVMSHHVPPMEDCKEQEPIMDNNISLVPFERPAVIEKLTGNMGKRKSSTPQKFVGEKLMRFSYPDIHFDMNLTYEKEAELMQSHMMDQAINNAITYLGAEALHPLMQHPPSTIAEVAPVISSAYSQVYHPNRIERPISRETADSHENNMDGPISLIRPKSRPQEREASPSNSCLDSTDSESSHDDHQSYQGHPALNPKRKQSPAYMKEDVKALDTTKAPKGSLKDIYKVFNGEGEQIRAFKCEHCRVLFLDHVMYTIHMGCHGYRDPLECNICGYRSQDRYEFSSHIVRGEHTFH
T2 sequence (Q96SW2 whole entry): as the sequence (Q96SW2 whole entry) above
T2 sequence (Q16531 whole entry partner): as the sequence (Q16531 whole entry partner) above
Procedure: as §1

Helios [3] = target: T2, Helios; assay: Helios Cellular Degradation Assay (Helios readout); set-up: endogenous in cells; host or cells: Jurkat; conditions: Jurkat cells, 72 h incubation, Helios-PE antibody staining, flow cytometry; read-out: Helios Jurkat IC50
Summary of the method: (§2)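 Jurkat cells (80,000/well, RPMI+10% FBS) were treated with compound for 72 h at 37° C. After fixation and permeabilization they were stained with fluorescent antibodies to Helios, Ikaros and Aiolos. Intracellular protein levels were quantified by flow cytometry.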

Ikaros [4] = target: T1, Ikaros; assay: Helios Cellular Degradation Assay (Ikaros readout); set-up: endogenous in cells; host or cells: Jurkat; conditions: Jurkat cells, 72 h incubation, Ikaros-Alexa488 antibody staining, flow cytometry; read-out: Ikaros Jurkat IC50
Summary of the method: as §2

| SMILES | DC50 (Ikaros [1]) [nM] | DC50 (Helios [2]) [nM] | DC50 (Helios [3]) [nM] | DC50 (Ikaros [4]) [nM] |
| --- | --- | --- | --- | --- |
| O=C1CCC(N2Cc3cc(-c4cc(COCc5ccccc5)ccn4)ccc3C2=O)C(=O)N1 (stereo not drawn) [Example 154] | ≥ 10000 | 3980 | – | – |
| O=C1CCC(N2Cc3cc(-c4cc5ccccc5c(=O)[nH]4)ccc3C2=O)C(=O)N1 (stereo not drawn) [Example 157, 3-[1-Oxo-5-(1-oxo-1,2-dihydroisoquinolin-3-yl)-2,3-dihydro-1H-isoindol-2-yl]piperidine-2,6-dione] | – | – | 110 | ≥ 20000 |
| O=C1CCC(N2Cc3cc(-c4cc5[nH]ccc5cn4)ccc3C2=O)C(=O)N1 (stereo not drawn) [Example 159, 3-(1-oxo-5-(1H-pyrrolo[3,2-c]pyridin-6-yl)isoindolin-2-yl)piperidine-2,6-dione] | – | – | 50 | 320 |
| O=C1CCC(N2Cc3cc(-c4nccc5[nH]ccc45)ccc3C2=O)C(=O)N1 (stereo not drawn) [Example 160, 3-(1-oxo-5-(1H-pyrrolo[3,2-c]pyridin-4-yl)isoindolin-2-yl)piperidine-2,6-dione] | – | – | 70 | ≥ 20000 |
| O=C1CCC(N2Cc3cc(-c4nccc5c4ccn5Cc4ccccc4)ccc3C2=O)C(=O)N1 (stereo not drawn) [Example 161, 3-(5-(1-benzyl-1H-pyrrolo[3,2-c]pyridin-4-yl)-1-oxoisoindolin-2-yl)piperidine-2,6-dione] | – | – | 20 | 90 |
| N#Cc1ccc(-c2ccc3c(c2)CN(C2CCC(=O)NC2=O)C3=O)nc1N (stereo not drawn) [Example 166, 2-amino-6-(2-(2,6-dioxopiperidin-3-yl)-1-oxoisoindolin-5-yl)nicotinonitrile] | – | – | 20 | ≥ 20000 |
| CCCc1cc(N)nc(-c2ccc3c(c2)CN(C2CCC(=O)NC2=O)C3=O)c1C#N (stereo not drawn) [Example 173, 6-amino-2-(2-(2,6-dioxopiperidin-3-yl)-1-oxoisoindolin-5-yl)-4-propylnicotinonitrile] | – | – | 120 | ≥ 10000 |
| CC(C)c1cc(N)nc(-c2ccc3c(c2)CN(C2CCC(=O)NC2=O)C3=O)c1C#N (stereo not drawn) [Example 179, 6-amino-2-(2-(2,6-dioxopiperidin-3-yl)-1-oxoisoindolin-5-yl)-4-isopropylnicotinonitrile] | – | – | ≥ 10000 | ≥ 10000 |
| Cc1cc(C#N)c(-c2ccc3c(c2)CN(C2CCC(=O)NC2=O)C3=O)nc1N (stereo not drawn) [Example 180, 6-amino-2-(2-(2,6-dioxopiperidin-3-yl)-1-oxoisoindolin-5-yl)-5-methylnicotinonitrile] | – | – | 20 | ≥ 10000 |
| COc1cc(C#N)c(N)nc1-c1ccc2c(c1)CN(C1CCC(=O)NC1=O)C2=O (stereo not drawn) [Example 181, 2-amino-6-(2-(2,6-dioxopiperidin-3-yl)-1-oxoisoindolin-5-yl)-5-methoxynicotinonitrile] | – | – | 140 | ≥ 10000 |
| N#Cc1cc(C2CC2)c(-c2ccc3c(c2)CN(C2CCC(=O)NC2=O)C3=O)nc1N (stereo not drawn) [Example 183, 2-amino-5-cyclopropyl-6-(2-(2,6-dioxopiperidin-3-yl)-1-oxoisoindolin-5-yl) nicotinonitrile] | – | – | 50 | ≥ 10000 |
| CS(=O)(=O)N1CCN(c2cc(N)nc(-c3ccc4c(c3)CN(C3CCC(=O)NC3=O)C4=O)c2)CC1 (stereo not drawn) [Example 185, 3-(5-(6-amino-4-(4-(methylsulfonyl)piperazin-1-yl)pyridin-2-yl)-1-oxoisoindolin-2-yl) piperidine-2,6-dione] | – | – | 6400 | ≥ 10000 |
| CC(=O)N1CCN(c2cc(N)nc(-c3ccc4c(c3)CN(C3CCC(=O)NC3=O)C4=O)c2)CC1 (stereo not drawn) [Example 186, 3-(5-(4-(4-acetylpiperazin-1-yl)-6-aminopyridin-2-yl)-1-oxoisoindolin-2-yl)piperidine-2,6-dione] | – | – | ≥ 10000 | ≥ 10000 |
| CCNc1cc(C)cc(-c2ccc3c(c2)CN(C2CCC(=O)NC2=O)C3=O)n1 (stereo not drawn) [Example 188, 3-(5-(6-(Ethylamino)-4-methylpyridin-2-yl)-1-oxoisoindolin-2-yl)piperidine-2,6-dione] | – | – | 40 | ≥ 10000 |

The remaining lines, values ahead:

| DC50 (Ikaros [1]) [nM] | DC50 (Helios [2]) [nM] | DC50 (Helios [3]) [nM] | DC50 (Ikaros [4]) [nM] | SMILES |
| --- | --- | --- | --- | --- |
| – | – | 20 | ≥ 10000 | O=C1CCC(N2Cc3cc(-c4cc5c(ccn5Cc5ccccc5)cn4)ccc3C2=O)C(=O)N1 (stereo not drawn) [Example 158, 3-(5-{1-Benzyl-1H-pyrrolo[3,2-c]pyridin-6-yl}-1-oxo-2,3-dihydro-1H-isoindol-2-yl) piperidine-2,6-dione] |
| – | – | 2460 | ≥ 20000 | N#Cc1cccc(-c2ccc3c(c2)CN(C2CCC(=O)NC2=O)C3=O)n1 (stereo not drawn) [Example 162, 6-(2-(2,6-dioxopiperidin-3-yl)-1-oxoisoindolin-5-yl)picolinonitrile] |
| – | – | 90 | ≥ 20000 | Nc1cc(C(F)(F)F)cc(-c2ccc3c(c2)CN(C2CCC(=O)NC2=O)C3=O)n1 (stereo not drawn) [Example 163, 3-(5-(6-amino-4-(trifluoromethyl)pyridin-2-yl)-1-oxoisoindolin-2-yl)piperidine-2,6-dione] |
| – | – | 40 | ≥ 20000 | COc1cc(N)nc(-c2ccc3c(c2)CN(C2CCC(=O)NC2=O)C3=O)c1 (stereo not drawn) [Example 164, 3-(5-(6-amino-4-methoxypyridin-2-yl)-1-oxoisoindolin-2-yl)piperidine-2,6-dione] |
| – | – | 30 | ≥ 20000 | Nc1cc(Cl)cc(-c2ccc3c(c2)CN(C2CCC(=O)NC2=O)C3=O)n1 (stereo not drawn) [Example 165, 3-(5-(6-amino-4-chloropyridin-2-yl)-1-oxoisoindolin-2-yl)piperidine-2,6-dione] |
| – | – | 50 | > 10000 | CC(=O)Nc1nc(-c2ccc3c(c2)CN(C2CCC(=O)NC2=O)C3=O)cc(C)c1C (stereo not drawn) [Example 167, N-(6-(2-(2,6-dioxopiperidin-3-yl)-1-oxoisoindolin-5-yl)-3,4-dimethylpyridin-2-yl) acetamide] |
| – | – | 70 | ≥ 10000 | CC(C)c1cc(-c2ccc3c(c2)CN(C2CCC(=O)NC2=O)C3=O)nc(N)c1C#N (stereo not drawn) [Example 178, 2-amino-6-(2-(2,6-dioxopiperidin-3-yl)-1-oxoisoindolin-5-yl)-4-isopropylnicotinonitrile] |
| – | – | 70 | ≥ 10000 | N#Cc1cc(C2CC2)c(N)nc1-c1ccc2c(c1)CN(C1CCC(=O)NC1=O)C2=O (stereo not drawn) [Example 182, 6-amino-5-cyclopropyl-2-(2-(2,6-dioxopiperidin-3-yl)-1-oxoisoindolin-5-yl) nicotinonitrile] |
| – | – | ≥ 10000 | ≥ 10000 | Nc1cc(N2CCN(Cc3ccccc3)CC2)cc(-c2ccc3c(c2)CN(C2CCC(=O)NC2=O)C3=O)n1 (stereo not drawn) [Example 184, 3-(5-(6-amino-4-(4-benzylpiperazin-1-yl)pyridin-2-yl)-1-oxoisoindolin-2-yl) piperidine-2,6-dione] |
| – | – | 10 | ≥ 10000 | CNc1cc(C)cc(-c2ccc3c(c2)CN(C2CCC(=O)NC2=O)C3=O)n1 (stereo not drawn) [Example 187, 3-(5-(4-Methyl-6-(methylamino)pyridin-2-yl)-1-oxoisoindolin-2-yl)piperidine-2,6-dione] |
